Experimental data taken from patent US20060068071A1, “Saturated and unsaturated N-alkamides exhibiting taste and flavor enhancement effect in flavor compositions” (priority 2004, published 2006).

Test: Organoleptic properties (taste profile) of the amides
Text: More specifically, examples of the organoleptic properties for the dienalkylamides of our invention are as follows: […]

[1] = Formula II compounds, at 10 ppm

| Compound | Taste profile (Formula II compounds) | further results |
| --- | --- | --- |
| CC/C=C\CC/C=C/CNC(=O)C1CC1 |  | Taste profile (Formula I compounds): Moderate Umami, off fish oily character |
| CCCCC/C=C\CC/C=C/CNC(=O)C1CC1 |  | Taste profile (Formula I compounds): Oily, moderate umami |
| CC/C=C\CC/C=C(\C)CNC(C)=O |  | Taste profile (Formula I compounds, at 10 ppm): Potent warming at 10 ppm |
| CC(C)=CCC/C(C)=C/CNC(=O)C1CC1 | Salt, MSG, Umami, mouthfeel, lasting sweetness. |  |
| CC(C)=CCC/C(C)=C\CNC(=O)C1CC1 | Salty, MSG, Umami, brothy, mouthfeel, sweetness. |  |
| CC(C)=CCC/C(C)=C/CNC(=O)C(C)C | Some salt enhancement, umami and strong MSG effect, sweet end profile |  |
| CC(C)=CCC/C(C)=C\CNC(=O)C(C)C | Salt enhancement, MSG enhancement, Umami, brothy, sweet end profile |  |
| C/C=C/C(=O)NC/C=C(\C)CCC=C(C)C | Moderate umami, salt like, lemon character. |  |
| C/C=C/C(=O)NC/C=C(/C)CCC=C(C)C | Moderate umami, some saltiness. |  |
| CC(C)=CCC/C(C)=C/CNC(=O)C=C(C)C |  | Taste profile [1]: Clean, weak umami effect at 10 ppm |
| CC(C)=CCC/C(C)=C\CNC(=O)C=C(C)C |  | Taste profile [1]: Clean, weak umami effect at 10 ppm |
